In PMC10562414, “GLP-1R signaling neighborhoods associate with the susceptibility to adverse drug reactions of incretin mimetics” (Nature Communications, 2023):

System: GLP-1R-expressing HEK293 cells + Dyngo-4A (phosphoproteome)
Assay: Phosphoproteomics, GLP-1R-transfected cells with internalization inhibitor Dyngo-4A, 30 min
Format: cell-based, human
Details: 50 μM, 30 min preincubation
Procedure: P values were calculated by a two-sided unpaired t-test.
HEK293 cells (350,000 cells/mL) were transfected in suspension using 3 μg of linear PEI (MW 25,000) per 1 μg of plasmid DNA and seeded onto poly-D-lysine-coated 60 mm dishes at a density of 1,750,000 cells per dish. After a 24-h incubation, cells were washed twice with PBS and placed in starvation media (DMEM with penicillin/streptomycin). After a 48-h incubation, cells were washed twice with HBSS and maintained in the same buffer. […] Cell extracts were prepared as previously described[64]–[66]. In short, 200 μL of the lysis buffer preheated at 95 °C (4% sodium dodecyl sulfate in 50 mM Tris adjusted to pH 8.5) was added to the cells. The samples were then denatured at 95 °C for 10 min, placed on ice and then sonicated using a probe sonicator (3 sec on, 3 sec off pulse, 1 min, 30% amplitude) (Branson). Lysate protein concentration was determined using the Pierce bicinchoninic acid assay kit (Thermo Fisher Scientific) according to the manufacturer’s instructions. The lysates were reduced using 5 mM dithiothreitol for 1 h at room temperature and alkylated using 15 mM iodoacetamide for 1 h at room temperature in the dark. Proteins were precipitated and digested on beads using MagReSyn Amine magnetic beads (ReSyn Biosciences) according to the manufacturer’s instructions. Protein digestion was conducted overnight at 37 °C with lysyl endopeptidase (LysC, Wako) (1:150 LysC/protein, w/w) and trypsin (1:300 trypsin/protein, w/w). 20% TFA, 2 M glycolic acid in 80% ACN were added to the samples at a 1:1 ratio for phosphopeptide enrichment using MagReSyn TiO2 magnetic beads (ReSyn Biosciences) according to the manufacturer’s instructions. The enriched phosphopeptides were dried overnight in a SpeedVac, resuspended into 5% formic acid (FA), desalted using StageTip (Thermo Fisher Scientific) according to the manufacturer’s instructions and dried in a SpeedVac. The experiment was performed in biological triplicates.
All parameters and settings regarding the acquisition of the proteomics data can be found in Supplementary Data 11, 12. For data acquisition, the instrument was set to peptide mode, with a trapping pressure set as low (2mTorr). An EASY-Spray Source (Thermo Fisher Scientific) was used and the column temperature was maintained with the integrated, temperature-controlled heater at 55 °C throughout the experiment. For the data presented in Fig. 5d, the column was heated at 50 °C following the manufacturer’s instructions (IonOpticks).
Acquired raw files were converted to mzML format by MSConvert (version 3.0.21258)[67] applying peak picking of the mass spectra with the vendor-provided algorithm (Thermo Fisher Scientific). The mzML files were analyzed using the FragPipe GUI v18 for both library and DIA search. […] Trypsin with up to 2 missed cleavages was set as digestion enzyme, oxidation of methionine, acetylation of the N-terminus and phosphorylation on serine, threonine and tyrosine (maximal occurrence was set to three) were set as variable modifications. Carbamidomethylation of cysteine residues was set as a fixed modification. Peptide length was restricted to 7 to 50 amino acids, and 500 to 5000 Da. The precursor tolerance was set to ±20 ppm, fragment mass tolerance to 20 ppm and MSBooster was enabled. The resulting peptide-spectrum matches were adjusted to a 1% false discovery rate with Percolator[69] as part of the Philosopher toolkit (v4.4)[70] and converted to a spectra library. DIA files were analyzed by DIA-NN 1.8.1[71], [72] using the previously generated library and monitor-command mode. Peptide quantification was performed based on the fragment elution profiles from the MS2 level (area under the curve).
All further data processing was performed in R (version 4.2.1). Only phosphopeptides with a localization score of at least 0.75 were considered for further analysis. […]

SMILES: O=C(N/N=C/c1cc(O)c(O)cc1O)c1cc2ccccc2cc1O [Dyngo-4A]
- effect on magnitude of agonist-induced phosphorylation events: affected
